From patent publication US20140179726A1, “GUT MICROFLORA AS BIOMARKERS FOR THE PROGNOSIS OF CIRRHOSIS AND BRAIN DYSFUNCTION” (priority 2011, published 2014)
“And” between values parts separate entries of the source, which are not always exact repeats. Equal values may be shown once.

What was measured:
stool microflora = experiment: Prospective study after lactulose withdrawal: stool microbiome on lactulose and 14 days off; assay type: in vivo, human
Method: Prospective study: A selected group of seven cirrhotic patients in the HE group currently only on lactulose (who were also included in the cross-sectional study) were systematically withdrawn from therapy. Their diet was controlled over the study period. Their stool microflora was analyzed while on lactulose and then 14 days off of lactulose therapy. Day 14 was chosen since prior culture-based studies have shown a change in fecal flora after lactulose initiation within that time frame (31).
(§1) Interrogation of the Microbiome: Stool was collected and DNA extracted for microbiome analysis within 24 hours of collection from patients and controls using published techniques (29). We first routinely use Length Heterogeneity PCR (LH-PCR) fingerprinting of the 16S rRNA to rapidly survey our samples and standardize the community amplification. We then interrogated the microbial taxa associated with the gut fecal microbiome using Multitag Pyrosequencing (MTPS). This technique allows the rapid sequencing of multiple samples at one time yielding thousands of sequence reads per sample (12).
(§2) MTPS: We employed the MTPS process to characterize the microbiome from the fecal samples. Specifically, we have generated a set of 96 emulsion PCR fusion primers that contain the 454 emulsion PCR linkers on the 27F and 355R primers and a different 8 base “barcode” between the A adapter and 27F primer. Thus, each fecal sample was amplified with unique bar-coded forward 16S rRNA primers and then up to 96 samples were pooled and subjected to emulsion PCR and pyrosequenced using a GS-FLX pyrosequencer (Roche). Data from each pooled sample were “deconvoluted” by sorting the sequences into bins based on the barcodes using custom PERL scripts. Thus, we were able to normalize each sample by the total number of reads from each barcode. We have noted that ligating tagged primers to PCR amplicons distorts the abundances of the communities and thus it is critical to incorporate the tags during the original amplification step (12). Several groups have employed various barcoding strategies to analyze multiple samples and this strategy is now well accepted (38).
(§3) RDP10 Analysis: We identified the taxa present in each sample using the Bayesian analysis tool in Version 10 of the Ribosomal Database Project (RDP10). The abundances of the bacterial identifications were then normalized using a custom PERL script and taxa present at >1% of the community were tabulated. We chose this cutoff because of our a priori assumption that taxa present in <1% of the community vary between individuals and have minimal contribution to the functionality of that community and 2,000 reads per sample will only reliably identify community components that are greater than 1% in abundance (13).
The cirrhosis group was divided into those with and without HE and were compared. Data from the significant variables between HE and non-HE groups were combined in a MANOVA model. Within HE patients, comparison was made between those on lactulose alone to those with lactulose and rifaximin. Microbiome abundance comparisons between groups were made at a family level using non-parametric tests. A comparison was performed between patients on and withdrawn off of lactulose therapy using the Wilcoxon matched-pair signed rank tests. All values are presented as mean±standard deviation unless mentioned otherwise.

stool microbiome = experiment: Stool microbiome by multitag pyrosequencing, family level, within HE group (Example 1); assay type: in vivo, human; parameters: normalized abundance of Streptococcaceae: unit not given here; details: HE patients
Method: as §1
Microbiome Community Fingerprinting: LH-PCR was done to standardize the community analysis as previously published (21). Briefly, total genomic DNA was extracted from tissue using Bio101 kit from MP Biomedicals Inc., Montreal, Quebec as per the manufacturer's instructions. About 10 ng of extracted DNA was amplified by PCR using a fluorescently labeled forward primer 27F (5’-(6FAM) AGAGTTTGATCCTGGCTCA G-3′, SEQ ID NO: 1) and unlabeled reverse primer 355R′ (5′-GCTGCCTCCCGTAGGAGT-3′, SEQ ID NO: 2). Both primers are universal primers for Bacteria (22). The LH-PCR products were diluted according to their intensity on agarose gel electrophoresis and mixed with ILS-600 size standards (Promega) and HiDi Formamide (Applied Biosystems, Foster City, Calif.). The diluted samples were then separated on a ABI 3130x1 fluorescent capillary sequencer (Applied Biosystems, Foster City, Calif.) and processed using the Genemapper™ software package (Applied Biosystems, Foster City, Calif.). Normalized peak areas were calculated using a custom PERL script and OTUs constituting less than 1% of the total community from each sample were eliminated from the analysis to remove the variable low abundance components within the communities.
as §2, §3
The cirrhosis group was divided into those with and without HE and were compared. Data from the significant variables between HE and non-HE groups were combined in a MANOVA model. Within HE patients, comparison was made between those on lactulose alone to those with lactulose and rifaximin. Microbiome abundance comparisons between groups were made at a family level using non-parametric tests. […]

[1] = stool, baseline on lactulose, seven patients

## OC[C@H]1O[C@@H](O[C@@H]2[C@@H](CO)OC(O)(CO)[C@H]2O)[C@H](O)[C@@H](O)[C@H]1O (mixture of isomers) [lactulose]
Stool microflora; after systematic withdrawal of lactulose, seven patients
  clinically recurrent HE at day 14: None of the patients had clinically recurrent HE
Stool microflora; stool, 14 days off lactulose, p=0.026 vs on lactulose
  abundance of Faecalibacterium spp. post-withdrawal: 1%
Stool microflora; stool, 14 days off lactulose, trend, p=0.07
  abundance of Veillonella spp. post-withdrawal: 0%
Stool microflora; [1]
  abundance of Alcaligenaceae: 2.6%
  abundance of Alistipes: 3%
  abundance of Bacteroides: 35%
  abundance of Clostridium spp.: < 1%
  abundance of Dialister: 2%
  abundance of Faecalibacterium: 7% and 6%
  abundance of Hafnia: 2%
  abundance of Hallella: 4%
  abundance of Lachnospira: 5%
  abundance of Lactobacillus spp.: < 1%
  abundance of Parabacteroides spp.: 2%
  abundance of Porphyromonadaceae: 1.7%
  abundance of Prevotella: 13%
  abundance of Roseburia: 3%
  abundance of Ruminococcus spp.: < 1%
  abundance of Shigella spp.: < 1%
  abundance of Streptococcus spp.: < 1%
  abundance of Succinispira spp.: 2%
  abundance of Sutterella spp.: 1%
  abundance of Veillonella: 2%
Stool microflora; stool, day 14, including Porphyromonadaceae and Alcaligenaceae
  other relative abundance change after lactulose withdrawal: No other significant relative abundance change
Stool microbiome
  normalized abundance of Alcaligenaceae: 12.6±9%
  normalized abundance of Bacteroidaceae: 39±35%
  normalized abundance of Enterobacteriaceae: 26±40%
  normalized abundance of Lactobacillaceae: 2±1%
  normalized abundance of Porphyromonadaceae: 14±21%
  normalized abundance of Prevotellaceae: 18±25%
  normalized abundance of Ruminococcaceae: 17±22%
  normalized abundance of Streptococcaceae: 4±10
  normalized abundance of Veillonellaceae: 15±13%
